These are literature values, as cited in PubChem BioAssay AID1259409 (Chemical Carcinogenesis Research Information System (CCRIS), 2018).

Molecules are shown by their SMILES.

The data set has as its system rodent chemically induced tumor inhibition, incidence and multiplicity. Put plainly: CCRIS tumor inhibitor studies. Conditions: Carcinogen: PHENACETIN, 62-44-2, N-BUTYL-N-(4-HYDROXYBUTYL)NITROSAMINE, 3817-11-6, Carcinogen: PHENACETIN, 62-44-2, N-BUTYL-N-(4-HYDROXYBUTYL)NITROSAMINE, 3817-11-6, Dose [Inhibitor]: 0, Route [Inhibitor]: SUBCUTANEOUS, Species: MOUSE, Strain/Sex: NON/SHI/MALE, Promoter: NONE USED.

Take `CC[C@H](C)[C@@H](NC(=O)[C@@H](CCC(=O)O)NC(=O)[C@@H](CO)NC(=O)[C@@H](CO)NC(=O)[C@H](NC(=O)[C@@H](CC(=O)O)NC(=O)[C@H](NC(=O)[C@H](C)NC(=O)[C@H](C)NC(=O)[C@@H](CC(=O)O)NC(=O)[C@@H](CO)NC(=O)[C@H](N)CS)C(C)C)C(C)C)C(=O)N[C@@H](C(=O)N[C@@H](C(=O)N[C@H](CCCCN)C(=O)N[C@H](CC(=O)O)C(=O)N[C@H](CC(C)C)C(=O)N[C@H](CCCCN)C(=O)N[C@H](CCC(=O)O)C(=O)N[C@H](CCCCN)C(=O)N[C@H](CCCCN)C(=O)N[C@H](CCC(=O)O)C(=O)N[C@@H](C(=O)N[C@@H](C(=O)N[C@H](CCC(=O)O)C(=O)N[C@H](CCC(=O)O)C(=O)N[C@@H](C)C(=O)N[C@H](CCC(=O)O)C(=O)O)C(C)C)C(C)C)C(C)C)[C@H](C)O`: the “tumour outcome (control, treated, inhibition, significance)” value is given as 7/20 (35%), 5/19 (26%), 26%, not significant (60 UG IN 0.1 ML SALINE 2/WK FOR 6 WK CONCURRENTLY WITH BBN TREATMENT (STUDY DURATION: 34 WK), Target Tissue: Type of Lesion: URINARY BLADDER: CARCINOMA, Dose [Carcinogen]: 2% PHENACETIN IN DIET FOR 12 WK FOLLOWED BY 0.05% BBN IN DRINKING WATER FOR 6 WK); 2/11 (18%), 8/12 (67%), -272%, not significant (60 UG IN 0.1 ML SALINE 2/WK FOR 16 WK BEGINNING POST CARCINOGEN TREATMENT (STUDY DURATION: 30 WK), Target Tissue: Type of Lesion: RENAL PELVIS: CARCINOMA, Dose [Carcinogen]: 2% PHENACETIN IN DIET FOR 8 WK FOLLOWED BY 0.05% BBN IN DRINKING WATER FOR 6 WK); 2/11 (18%), 3/12 (25%), -39%, not significant (60 UG IN 0.1 ML SALINE 2/WK FOR 16 WK BEGINNING POST CARCINOGEN TREATMENT (STUDY DURATION: 30 WK), Target Tissue: Type of Lesion: URINARY BLADDER: CARCINOMA, Dose [Carcinogen]: 2% PHENACETIN IN DIET FOR 8 WK FOLLOWED BY 0.05% BBN IN DRINKING WATER FOR 6 WK); 9/20 (45%), 10/18 (56%), -24%, not significant (60 UG IN 0.1 ML SALINE 2/WK FOR 16 WK BEGINNING POST CARCINOGEN TREATMENT (STUDY DURATION: 34 WK), Target Tissue: Type of Lesion: RENAL PELVIS: CARCINOMA, Dose [Carcinogen]: 2% PHENACETIN IN DIET FOR 12 WK FOLLOWED BY 0.05% BBN IN DRINKING WATER FOR 6 WK); 7/20 (35%), 4/18 (22%), 37%, not significant (60 UG IN 0.1 ML SALINE 2/WK FOR 16 WK BEGINNING POST CARCINOGEN TREATMENT (STUDY DURATION: 34 WK), Target Tissue: Type of Lesion: URINARY BLADDER: CARCINOMA, Dose [Carcinogen]: 2% PHENACETIN IN DIET FOR 12 WK FOLLOWED BY 0.05% BBN IN DRINKING WATER FOR 6 WK); 2/11 (18%), 2/12 (17%), 5%, not significant (60 UG IN 0.1 ML SALINE 2/WK FOR 22 WK BEGINNING POST PHENACETIN TREATMENT (STUDY DURATION: 30 WK), Target Tissue: Type of Lesion: RENAL PELVIS: CARCINOMA, Dose [Carcinogen]: 2% PHENACETIN IN DIET FOR 8 WK FOLLOWED BY 0.05% BBN IN DRINKING WATER FOR 6 WK). Further, the “tumour outcome (control, treated, inhibition, significance)” value (60 UG IN 0.1 ML SALINE 2/WK FOR 22 WK BEGINNING POST PHENACETIN TREATMENT (STUDY DURATION: 30 WK), Target Tissue: Type of Lesion: URINARY BLADDER: CARCINOMA, Dose [Carcinogen]: 2% PHENACETIN IN DIET FOR 8 WK FOLLOWED BY 0.05% BBN IN DRINKING WATER FOR 6 WK) was 2/11 (18%), 1/12 (8%), 56%, not significant; the “tumour outcome (control, treated, inhibition, significance)” value (60 UG IN 0.1 ML SALINE 2/WK FOR 22 WK BEGINNING POST PHENACETIN TREATMENT (STUDY DURATION: 34 WK), Target Tissue: Type of Lesion: RENAL PELVIS: CARCINOMA, Dose [Carcinogen]: 2% PHENACETIN IN DIET FOR 12 WK FOLLOWED BY 0.05% BBN IN DRINKING WATER FOR 6 WK) is listed as 9/20 (45%), 13/19 (68%), -51%, not significant; the “tumour outcome (control, treated, inhibition, significance)” value (60 UG IN 0.1 ML SALINE 2/WK FOR 22 WK BEGINNING POST PHENACETIN TREATMENT (STUDY DURATION:34 WK), Target Tissue: Type of Lesion: URINARY BLADDER: CARCINOMA, Dose [Carcinogen]: 2% PHENACETIN IN DIET FOR 12 WK FOLLOWED BY 0.05% BBN IN DRINKING WATER FOR 6 WK) is recorded as 7/20 (35%), 7/19 (37%), -6%, not significant.
